{"source": "patent US20140044759A1", "about": "“DRUG SUBSTANCES, PHARMACEUTICAL COMPOSITIONS AND METHODS FOR PREPARING THE SAME” (priority 2011, published 2014)", "format_in_all_cases": "physicochemical", "key": {"[1]": {"assay": "Dissolution testing of drug product, USP Dissolution Apparatus 2 (paddle)", "conditions": "45 minutes; drug substance BET SSA 12.06 m^2/g", "description": "The resulting drug products were subjected to dissolution testing in a USP Dissolution Apparatus 2 (DISTEK, New Brunswick, N.J.), equipped with a paddle (see United States Pharmacopeia (USP) General Chapter 711 Dissolution). 50 millimoles of phosphate buffer (pH=6.8) containing 0.1% sodium dodecyl sulphate was used. Testing was performed at physiological temperatures (37.0° C.±0.5° C.)."}, "[2]": {"assay": "Bulk and tap density of drug substance powder (morphology study)", "description": "A solution of the product of Example 1, Procedure A2 (608.5 g) dissolved in MTBE (2450 mL) was prepared. The solution was added into the mixing chamber at a rate of 840 mL/min and combined with n-heptane flowing at a rate of 3400 mL/min to form a slurry. The precipitation temperature was controlled at 20° C. After precipitation, one sample was filtered at 20° C. and a second sample was heated to 50° C. at a rate of 1° C./min. The drug substance particle morphology was examined by Scanning Electron Microscopy (SEM); images of the particles are provided as FIGS. 7A and 7B, respectively.\nThe difference in morphology between the two […] samples is readily apparent. The sample filtered at 20° C., shown in FIG. 7A, retained the particle morphology obtained during precipitation. The sample heated to 50° C., shown in FIG. 7B, consists of particles that are fused together; some particles look melted. The particles having different morphologies also had differences in drug substance physical attributes."}, "[3]": {"assay": "BET specific surface area by nitrogen adsorption (TRISTAR 2000)", "conditions": "for BET specific surface area, effect of slurry composition: external T=18 °C, FIG. 10", "excerpt": "Through these tests, it was established that drug substance Brunnauer-Emmett-Teller specific surface area (“BET specific surface area” or “BET SSA”) in a particular range is desirable to obtain desirable dissolution properties in the final product. BET specific surface area can be measured by physical adsorption methods known to one of skill in the art. All measurements described herein were made on a TRISTAR 2000 instrument (MICROMERITICS, Norcross, Ga.) using the nitrogen adsorption method, as described in Webb, P. A., “Surface Area, Porosity, and Related Physical Characteristics,” in PHARMACEUTICAL DOSAGE FORMS: TABLETS, VOLUME 3: MANUFACTURE AND PROCESS CONTROL 277-302 (eds. L. Augsburger & S. W. Hoag Informa Healthcare USA Inc. 2008). In the nitrogen absorption method, a tube containing a solid sample is preconditioned at a certain temperature for a predetermined amount of time to remove gases/vapors adsorbed on the surface of the solids. For the examples described herein, the equilibration temperature was 30° C., and the time was 16 hours. The tube is then placed into the instrument and evacuated. After evacuation, the tube is submerged into liquid nitrogen, and a known amount of nitrogen (N2) gas is introduced in the tube by means of a control valve. The N2 gas expands and fills the free volume of the tube. The pressure P of the tube will become equal to nRT/V, where n is the number of N2 gas molecules introduced in the sample tube, R is the universal gas constant, T is the absolute temperature and V is the tube free volume. By repeating the evacuation and filling procedure for different amounts of N2 gas, a BET isotherm curve can be obtained, and the BET specific surface area of the solids can be calculated from the slope of the BET curve, as described in Webb (supra)."}, "[4]": {"conditions": "Example 8, equilibration temperature 20 °C (filtered at 20 °C)"}, "[5]": {"conditions": "Example 8, equilibration temperature 50 °C (heated to 50 °C at 1 °C/min)"}, "[6]": {"conditions": "aging process, sample: After 1% of batch distilled"}, "[7]": {"conditions": "aging process, sample: After 2% of batch distilled"}, "[8]": {"conditions": "aging process, sample: After 4% of batch distilled"}, "[9]": {"conditions": "aging process, sample: After 6 hours at aging temperature"}, "[10]": {"conditions": "aging process, sample: After distillation"}, "[11]": {"conditions": "aging process, sample: After precipitation"}, "[12]": {"conditions": "aging process, sample: Final dry cake"}}}
{"smiles": "CC(C)(C)NC(=O)N[C@H](C(=O)N1C[C@H]2[C@@H]([C@H]1C(=O)NC(CC1CCC1)C(=O)C(N)=O)C2(C)C)C(C)(C)C", "note": "(stereo partly drawn) [boceprevir, (1R,5S)—N-[3-amino-1-(cyclobutylmethyl)-2,3-dioxopropyl]-3-[2(S)-[[[(1,1-dimethylethyl)amino]carbonyl]amino]-3,3-dimethyl-1-oxobutyl]-6,6-dimethyl-3-azabicyclo[3.1.0]hexan-2(S)-carboxamide]", "values": [{"measurement": "% Dissolved", "setting": "[1]", "value": "did not consistently meet or exceed a 75% dissolution criterion"}, {"measurement": "bulk and tap density, powder of FIG. 7A (20 °C) compared to powder of FIG. 7B (50 °C)", "setting": "[2]; Example 8", "value": "about 2 times"}, {"measurement": "Bulk Density", "setting": "[2]; [4]", "value": 0.3087, "unit": "g/mL"}, {"measurement": "Tap Density", "setting": "[2]; [4]", "value": 0.4062, "unit": "g/mL"}, {"measurement": "Bulk Density", "setting": "[2]; [5]", "value": 0.1265, "unit": "g/mL"}, {"measurement": "Tap Density", "setting": "[2]; [5]", "value": 0.1898, "unit": "g/mL"}, {"measurement": "BET specific surface area", "setting": "[3]; Example 2, laboratory scale tee mixer, slurry filtered immediately after precipitation and dried", "value": "about 94 m^2/g"}, {"measurement": "BET specific surface area", "setting": "[3]; Example 6, distillation profile of Table 3", "value": 2.93, "unit": "m^2/g"}, {"measurement": "BET specific surface area", "setting": "[3]; Example 6, distillation profile of Table 11 (25-27.0 °C)", "value": 2.01, "unit": "m^2/g"}, {"measurement": "BET specific surface area", "setting": "[3]; Example 7, drug substance used for the high BET SSA study", "value": 12.06, "unit": "m^2/g"}, {"measurement": "BET specific surface area, powder of FIG. 7A (20 °C) compared to powder of FIG. 7B (50 °C)", "setting": "[3]; Example 8", "value": 10, "unit": "times"}, {"measurement": "BET SSA", "setting": "[3]; [4]", "value": 19.11, "unit": "m^2/g"}, {"measurement": "BET SSA", "setting": "[3]; [5]", "value": 1.82, "unit": "m^2/g"}, {"measurement": "final BET specific surface area as a function of equilibration temperature", "setting": "[3]; Example 9, slurries from -15 °C held at external temperatures of 5 °C and 0 °C, FIG. 8", "value": "lower for the higher equilibration temperature"}, {"measurement": "changes in BET specific surface area on holding at aging temperature", "setting": "[3]; Example 10, aging temperature 14 °C, after 3 hours of holding, FIG. 6", "value": "very small changes"}, {"measurement": "BET specific surface area, effect of slurry composition", "setting": "[3]; Example 12, first slurry (low solvent/high anti-solvent)", "value": "higher drug substance BET specific surface area"}, {"measurement": "BET specific surface area, effect of slurry composition", "setting": "[3]; Example 12, second slurry (high solvent/low anti-solvent)", "value": "lower drug substance BET specific surface area"}]}
{"smiles": "CC(C)(C)NC(=O)N[C@H](C(=O)N1C[C@H]2[C@@H]([C@H]1C(=O)NC(CC1CCC1)C(=O)C(N)=O)C2(C)C)C(C)(C)C", "note": "(stereo partly shown) [Batch 2]", "values": [{"measurement": "BET SSA", "setting": "[3]; [6]", "value": 7.14, "unit": "m^2/g"}, {"measurement": "BET SSA", "setting": "[3]; [7]", "value": 6.90, "unit": "m^2/g"}, {"measurement": "BET SSA", "setting": "[3]; [8]", "value": 6.88, "unit": "m^2/g"}, {"measurement": "BET SSA", "setting": "[3]; [9]", "value": 7.36, "unit": "m^2/g"}, {"measurement": "BET SSA", "setting": "[3]; [10]", "value": 6.92, "unit": "m^2/g"}, {"measurement": "BET SSA", "setting": "[3]; [11]", "value": 46.94, "unit": "m^2/g"}, {"measurement": "BET SSA", "setting": "[3]; [12]", "value": 7.61, "unit": "m^2/g"}]}
{"smiles": "CC(C)(C)NC(=O)N[C@H](C(=O)N1C[C@H]2[C@@H]([C@H]1C(=O)NC(CC1CCC1)C(=O)C(N)=O)C2(C)C)C(C)(C)C", "note": "(stereo partly shown) [Batch 1]", "values": [{"measurement": "BET SSA", "setting": "[3]; [6]", "value": 9.18, "unit": "m^2/g"}, {"measurement": "BET SSA", "setting": "[3]; [7]", "value": 9.13, "unit": "m^2/g"}, {"measurement": "BET SSA", "setting": "[3]; [8]", "value": 9.05, "unit": "m^2/g"}, {"measurement": "BET SSA", "setting": "[3]; [9]", "value": 9.60, "unit": "m^2/g"}, {"measurement": "BET SSA", "setting": "[3]; [10]", "value": 8.88, "unit": "m^2/g"}, {"measurement": "BET SSA", "setting": "[3]; [11]", "value": 56.70, "unit": "m^2/g"}, {"measurement": "BET SSA", "setting": "[3]; [12]", "value": 9.30, "unit": "m^2/g"}]}
